Active and inactive are the calls of the source.
Legend:
Caspase-6 = target: T1, Caspase-6 (Homo sapiens, UniProt P55212); experiment: human caspase-6 inhibitors, dose response, biochemical, VEID-R110 fluorescence, cherry-pick (AID 720632)
T1 sequence (P55212 whole entry): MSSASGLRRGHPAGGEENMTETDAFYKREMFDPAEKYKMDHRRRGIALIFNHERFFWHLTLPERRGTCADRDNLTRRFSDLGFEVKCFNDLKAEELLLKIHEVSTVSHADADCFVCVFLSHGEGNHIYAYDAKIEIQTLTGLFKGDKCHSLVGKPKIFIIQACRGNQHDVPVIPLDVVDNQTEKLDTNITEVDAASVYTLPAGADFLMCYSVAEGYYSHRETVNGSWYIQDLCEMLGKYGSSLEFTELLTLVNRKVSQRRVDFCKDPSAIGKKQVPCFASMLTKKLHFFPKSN

[1] = Luminescence Cell-Based Dose Response HTS to Identify Inhibitors of 5'UTR Stem-Loop Driven Prion Protein mRNA Translation in H4 Neuroglioblastoma Cells. [Related pubchem assays: 1827 (Project Summary), 1813 (Primary HTS)]; assay type: functional
Protein RecA = target: T2, Protein RecA (Mycobacterium tuberculosis, UniProt P9WHJ3); experiment: Fluorescence Cell-Free Homogeneous Dose Retest to Identify Inhibitors of RecA-Intein Splicing Activity. [Related pubchem assays (depositor defined):AID2097, AID2223, AID489010, AID492950]; assay type: functional
T2 sequence (P9WHJ3 whole entry): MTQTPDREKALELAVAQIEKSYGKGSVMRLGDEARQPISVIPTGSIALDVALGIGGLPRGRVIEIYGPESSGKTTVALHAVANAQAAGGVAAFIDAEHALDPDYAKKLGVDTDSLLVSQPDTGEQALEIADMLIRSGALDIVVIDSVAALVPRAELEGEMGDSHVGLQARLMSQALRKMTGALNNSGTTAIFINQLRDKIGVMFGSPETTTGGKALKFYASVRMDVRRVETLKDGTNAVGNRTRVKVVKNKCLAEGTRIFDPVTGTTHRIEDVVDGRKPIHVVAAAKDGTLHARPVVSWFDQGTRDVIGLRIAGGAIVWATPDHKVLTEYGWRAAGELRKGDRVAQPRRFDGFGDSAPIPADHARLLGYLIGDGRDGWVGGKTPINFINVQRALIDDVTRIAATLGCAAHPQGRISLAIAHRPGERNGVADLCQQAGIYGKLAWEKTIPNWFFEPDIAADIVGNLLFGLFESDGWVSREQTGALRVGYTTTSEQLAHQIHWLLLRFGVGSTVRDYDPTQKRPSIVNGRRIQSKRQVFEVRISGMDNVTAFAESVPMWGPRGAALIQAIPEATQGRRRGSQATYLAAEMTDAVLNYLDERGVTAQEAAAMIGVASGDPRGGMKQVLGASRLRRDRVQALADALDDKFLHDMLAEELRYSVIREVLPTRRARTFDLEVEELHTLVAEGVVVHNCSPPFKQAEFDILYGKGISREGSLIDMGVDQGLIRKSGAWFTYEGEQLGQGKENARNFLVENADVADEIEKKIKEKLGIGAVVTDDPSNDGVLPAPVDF

Vero = Vero cell cytotoxicity, cytotoxicity control for flavivirus capping enzyme inhibitors (AID 588742); assay type: functional; conditions: Chlorocebus sabaeus
[2] = target: Interleukin-1 receptor-associated kinase 1 (Homo sapiens, UniProt P51617); assay type: functional;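 also: IRAK1 tested as one member of a kinome panel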
Aurora kinase A = Aurora kinase A (Homo sapiens, UniProt O14965); assay type: functional;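 also: value from the Navigating the Kinome kinase panel profiling, panel entry STK6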
[3] = target: Lymphokine-activated killer T-cell-originated protein kinase (Homo sapiens, UniProt Q96KB5); assay type: functional;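 also: value comes from a kinase panel screen in which TOPK was one of the panel members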
[4] = target: Inhibitor of nuclear factor kappa-B kinase subunit epsilon (Homo sapiens, UniProt Q14164); experiment: Navigating the Kinome. Panel member name: IKBKE; assay type: functional
[5] = target: Hepatocyte growth factor receptor (Homo sapiens, UniProt P08581); assay type: functional;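 also: kinase panel profiling across the kinome, with MET as the panel member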
[6] = target: Fibroblast growth factor receptor 1 (Homo sapiens, UniProt P11362); assay type: functional
[7] = target: Mitogen-activated protein kinase kinase kinase kinase 4 (Homo sapiens, UniProt O95819); assay type: functional
Insulin receptor = Insulin receptor (Homo sapiens, UniProt P06213); assay type: functional;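 also: insulin receptor kinase tested as one member of a kinome-wide kinase panel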
Activin receptor type-1 = Activin receptor type-1 (Homo sapiens, UniProt Q04771); experiment: Navigating the Kinome. Panel member name: ACVR1; assay type: functional
[8] = target: cGMP-dependent protein kinase 1 (Homo sapiens, UniProt Q13976); assay type: functional;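 also: value from a kinome panel screen with PRKG1 as the panel member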
[9] = target: cAMP-dependent protein kinase catalytic subunit alpha (Homo sapiens, UniProt P17612); assay type: functional
[10] = target: Serine/threonine-protein kinase pim-3 (Homo sapiens, UniProt Q86V86); assay type: functional;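 also: value obtained as one member of a broad kinase panel profiling effort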
[11] = target: Phosphorylase b kinase gamma catalytic chain, liver/testis isoform (Homo sapiens, UniProt P15735); assay type: functional;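 also: PHKG2 measured as one member of a kinome-wide kinase panel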
[12] = target: Serine/threonine-protein kinase Nek2 (Homo sapiens, UniProt P51955); assay type: functional
[13] = target: Serine/threonine-protein kinase TBK1 (Homo sapiens, UniProt Q9UHD2); experiment: Navigating the Kinome. Panel member name: TBK1; assay type: functional
[14] = target: cAMP-dependent protein kinase catalytic subunit PRKX (Homo sapiens, UniProt P51817); assay type: functional
[15] = target: Cell division cycle 7-related protein kinase (Homo sapiens, UniProt O00311); assay type: functional;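 also: value obtained from a kinome-wide kinase panel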
[16] = target: Non-receptor tyrosine-protein kinase TYK2 (Homo sapiens, UniProt P29597); assay type: functional
[17] = target: Mast/stem cell growth factor receptor Kit (Homo sapiens, UniProt P10721); assay type: functional;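 also: KIT entry within a kinase panel assay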
[18] = target: Receptor tyrosine-protein kinase erbB-4 (Homo sapiens, UniProt Q15303); assay type: functional;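 also: ERBB4 member of a kinome-wide kinase profiling panel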
[19] = target: RAC-alpha serine/threonine-protein kinase (Homo sapiens, UniProt P31749); assay type: functional;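 also: AKT1 affinity measured as one member of a kinome-wide kinase profiling panel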
[20] = target: Tyrosine-protein kinase Srms (Homo sapiens, UniProt Q9H3Y6); assay type: functional;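 also: SRMS measured as one member of a kinome-wide kinase profiling panel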

Sequence of cAMP-dependent protein kinase catalytic subunit PRKX (P51817 whole entry): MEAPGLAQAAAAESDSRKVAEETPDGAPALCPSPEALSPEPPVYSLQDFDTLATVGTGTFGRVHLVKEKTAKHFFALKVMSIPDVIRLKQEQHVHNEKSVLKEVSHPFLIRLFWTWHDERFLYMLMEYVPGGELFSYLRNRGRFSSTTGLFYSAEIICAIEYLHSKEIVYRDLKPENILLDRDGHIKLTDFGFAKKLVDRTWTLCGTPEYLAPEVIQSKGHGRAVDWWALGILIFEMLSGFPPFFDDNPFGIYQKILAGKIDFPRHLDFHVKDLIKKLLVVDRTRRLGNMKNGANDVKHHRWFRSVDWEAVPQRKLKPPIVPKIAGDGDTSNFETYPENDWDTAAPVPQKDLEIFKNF
Sequence of Inhibitor of nuclear factor kappa-B kinase subunit epsilon (Q14164 whole entry): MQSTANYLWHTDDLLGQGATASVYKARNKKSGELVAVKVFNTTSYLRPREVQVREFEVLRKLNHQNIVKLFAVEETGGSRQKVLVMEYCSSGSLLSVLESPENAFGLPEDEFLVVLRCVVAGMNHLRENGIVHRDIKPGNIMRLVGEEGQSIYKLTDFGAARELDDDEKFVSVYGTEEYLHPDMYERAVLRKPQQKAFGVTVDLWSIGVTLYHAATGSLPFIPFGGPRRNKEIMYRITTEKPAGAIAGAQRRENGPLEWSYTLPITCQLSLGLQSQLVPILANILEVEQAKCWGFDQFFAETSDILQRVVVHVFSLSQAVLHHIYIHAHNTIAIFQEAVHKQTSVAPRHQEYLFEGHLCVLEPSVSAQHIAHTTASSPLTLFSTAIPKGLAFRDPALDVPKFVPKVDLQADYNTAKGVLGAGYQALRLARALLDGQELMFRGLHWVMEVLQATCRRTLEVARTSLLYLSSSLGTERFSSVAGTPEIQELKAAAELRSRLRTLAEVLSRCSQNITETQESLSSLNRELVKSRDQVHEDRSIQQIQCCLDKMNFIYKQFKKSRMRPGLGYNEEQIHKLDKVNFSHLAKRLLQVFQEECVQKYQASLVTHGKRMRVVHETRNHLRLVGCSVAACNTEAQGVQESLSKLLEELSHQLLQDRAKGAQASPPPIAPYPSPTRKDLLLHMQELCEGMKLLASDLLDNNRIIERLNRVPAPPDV
Sequence of Serine/threonine-protein kinase TBK1 (Q9UHD2 whole entry): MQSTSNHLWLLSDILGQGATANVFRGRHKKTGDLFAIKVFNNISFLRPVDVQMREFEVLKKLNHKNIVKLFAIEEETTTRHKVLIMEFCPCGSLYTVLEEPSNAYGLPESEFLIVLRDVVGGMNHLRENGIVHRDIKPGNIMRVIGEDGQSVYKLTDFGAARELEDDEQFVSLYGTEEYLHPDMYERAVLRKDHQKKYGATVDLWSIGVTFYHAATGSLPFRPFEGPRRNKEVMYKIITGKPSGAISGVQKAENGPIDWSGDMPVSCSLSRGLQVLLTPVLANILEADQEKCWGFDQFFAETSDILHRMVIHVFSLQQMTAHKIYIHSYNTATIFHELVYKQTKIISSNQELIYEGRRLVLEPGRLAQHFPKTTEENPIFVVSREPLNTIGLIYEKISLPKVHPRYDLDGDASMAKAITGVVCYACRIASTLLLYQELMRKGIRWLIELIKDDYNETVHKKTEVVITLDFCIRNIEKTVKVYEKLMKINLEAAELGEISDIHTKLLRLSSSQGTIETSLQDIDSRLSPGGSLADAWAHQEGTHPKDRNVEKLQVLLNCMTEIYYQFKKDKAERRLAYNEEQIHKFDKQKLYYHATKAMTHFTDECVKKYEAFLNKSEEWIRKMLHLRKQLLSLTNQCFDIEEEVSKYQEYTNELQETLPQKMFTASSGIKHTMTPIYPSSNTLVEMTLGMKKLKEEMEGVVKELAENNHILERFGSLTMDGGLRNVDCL
Sequence of Interleukin-1 receptor-associated kinase 1 (P51617 whole entry): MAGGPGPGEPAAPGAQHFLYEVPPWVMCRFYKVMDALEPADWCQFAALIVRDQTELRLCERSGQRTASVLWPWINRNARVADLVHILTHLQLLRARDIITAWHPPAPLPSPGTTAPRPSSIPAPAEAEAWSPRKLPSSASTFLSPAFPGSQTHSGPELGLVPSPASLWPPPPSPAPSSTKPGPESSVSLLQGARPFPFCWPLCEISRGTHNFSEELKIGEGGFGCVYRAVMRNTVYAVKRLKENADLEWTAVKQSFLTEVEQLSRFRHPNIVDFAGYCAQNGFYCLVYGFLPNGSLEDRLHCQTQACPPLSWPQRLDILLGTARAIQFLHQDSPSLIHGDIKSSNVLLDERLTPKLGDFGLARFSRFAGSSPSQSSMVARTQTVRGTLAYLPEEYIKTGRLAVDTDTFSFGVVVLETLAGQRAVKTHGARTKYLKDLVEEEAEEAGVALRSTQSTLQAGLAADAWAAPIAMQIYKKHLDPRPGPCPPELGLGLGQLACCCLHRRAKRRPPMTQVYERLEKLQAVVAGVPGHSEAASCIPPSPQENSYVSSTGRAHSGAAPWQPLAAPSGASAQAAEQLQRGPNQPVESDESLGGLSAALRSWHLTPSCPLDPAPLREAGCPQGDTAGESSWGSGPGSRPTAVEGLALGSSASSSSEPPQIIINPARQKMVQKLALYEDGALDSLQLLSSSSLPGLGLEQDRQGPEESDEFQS
Sequence of Serine/threonine-protein kinase Nek2 (P51955 whole entry): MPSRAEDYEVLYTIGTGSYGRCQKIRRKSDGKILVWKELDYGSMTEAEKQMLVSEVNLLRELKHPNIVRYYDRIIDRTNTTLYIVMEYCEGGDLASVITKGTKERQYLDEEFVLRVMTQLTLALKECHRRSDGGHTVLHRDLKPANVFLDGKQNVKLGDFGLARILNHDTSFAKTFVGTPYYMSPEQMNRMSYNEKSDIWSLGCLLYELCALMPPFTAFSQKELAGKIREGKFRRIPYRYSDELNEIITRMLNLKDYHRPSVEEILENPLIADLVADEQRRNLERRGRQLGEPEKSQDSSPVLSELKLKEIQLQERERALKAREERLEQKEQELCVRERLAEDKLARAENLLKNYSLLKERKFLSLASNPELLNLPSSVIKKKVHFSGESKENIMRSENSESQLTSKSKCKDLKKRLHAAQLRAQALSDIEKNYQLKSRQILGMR
Sequence of Mast/stem cell growth factor receptor Kit (P10721 whole entry): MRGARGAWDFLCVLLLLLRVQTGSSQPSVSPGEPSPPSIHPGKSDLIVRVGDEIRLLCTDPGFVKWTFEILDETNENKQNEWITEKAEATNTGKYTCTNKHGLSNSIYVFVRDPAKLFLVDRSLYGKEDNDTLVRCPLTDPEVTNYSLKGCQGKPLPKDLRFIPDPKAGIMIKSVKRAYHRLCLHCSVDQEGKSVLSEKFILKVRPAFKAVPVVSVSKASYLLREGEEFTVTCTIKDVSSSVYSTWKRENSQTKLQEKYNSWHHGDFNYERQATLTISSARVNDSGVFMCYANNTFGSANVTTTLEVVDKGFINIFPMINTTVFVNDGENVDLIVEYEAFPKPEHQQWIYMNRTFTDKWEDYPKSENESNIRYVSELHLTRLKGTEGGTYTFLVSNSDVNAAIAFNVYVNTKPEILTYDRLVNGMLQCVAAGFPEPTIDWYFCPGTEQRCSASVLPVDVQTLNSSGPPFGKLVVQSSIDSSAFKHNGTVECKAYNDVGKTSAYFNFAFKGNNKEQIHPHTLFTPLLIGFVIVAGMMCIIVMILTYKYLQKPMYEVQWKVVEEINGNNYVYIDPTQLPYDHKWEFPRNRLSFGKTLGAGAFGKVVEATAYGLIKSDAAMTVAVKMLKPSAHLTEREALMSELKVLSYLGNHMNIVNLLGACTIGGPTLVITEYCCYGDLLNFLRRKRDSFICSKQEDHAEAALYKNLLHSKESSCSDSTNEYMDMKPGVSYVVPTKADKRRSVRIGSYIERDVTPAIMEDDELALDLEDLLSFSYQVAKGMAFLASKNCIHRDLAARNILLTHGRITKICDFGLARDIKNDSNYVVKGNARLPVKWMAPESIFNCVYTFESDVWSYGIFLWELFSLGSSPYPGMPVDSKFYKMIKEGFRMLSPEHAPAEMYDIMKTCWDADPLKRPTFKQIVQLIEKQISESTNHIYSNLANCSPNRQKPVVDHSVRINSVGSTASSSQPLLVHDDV
Sequence of RAC-alpha serine/threonine-protein kinase (P31749 whole entry): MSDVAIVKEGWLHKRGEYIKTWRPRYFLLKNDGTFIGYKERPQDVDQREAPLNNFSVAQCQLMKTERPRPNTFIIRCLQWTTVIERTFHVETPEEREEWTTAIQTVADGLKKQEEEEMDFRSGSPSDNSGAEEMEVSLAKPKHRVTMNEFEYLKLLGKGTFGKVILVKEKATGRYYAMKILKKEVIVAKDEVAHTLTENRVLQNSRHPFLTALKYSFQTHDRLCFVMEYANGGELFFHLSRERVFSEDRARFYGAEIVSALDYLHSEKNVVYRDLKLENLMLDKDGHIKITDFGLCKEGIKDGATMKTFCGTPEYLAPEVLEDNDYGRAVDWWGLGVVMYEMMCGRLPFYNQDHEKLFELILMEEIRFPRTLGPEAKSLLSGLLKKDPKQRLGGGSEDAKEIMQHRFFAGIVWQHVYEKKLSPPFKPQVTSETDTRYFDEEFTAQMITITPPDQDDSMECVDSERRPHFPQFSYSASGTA
Sequence of Activin receptor type-1 (Q04771 whole entry): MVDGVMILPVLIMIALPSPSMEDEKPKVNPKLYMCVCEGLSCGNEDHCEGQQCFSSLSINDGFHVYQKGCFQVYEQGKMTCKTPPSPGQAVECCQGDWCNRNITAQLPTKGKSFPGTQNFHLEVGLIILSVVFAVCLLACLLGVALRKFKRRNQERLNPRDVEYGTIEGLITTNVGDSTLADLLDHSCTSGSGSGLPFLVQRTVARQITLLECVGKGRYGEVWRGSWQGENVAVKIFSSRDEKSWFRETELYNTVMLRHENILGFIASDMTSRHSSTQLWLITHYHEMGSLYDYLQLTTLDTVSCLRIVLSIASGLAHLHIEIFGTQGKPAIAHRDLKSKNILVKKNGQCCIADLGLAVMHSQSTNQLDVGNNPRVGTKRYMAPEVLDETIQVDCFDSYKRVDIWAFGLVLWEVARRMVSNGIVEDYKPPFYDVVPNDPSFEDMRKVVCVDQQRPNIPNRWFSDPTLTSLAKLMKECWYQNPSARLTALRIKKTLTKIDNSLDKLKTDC

Question: With CC(C)N(C(=O)Nc1ccc2nsnc2c1)C(C)C as the compound, how does the AC50 (Caspase-6) read?
Answer: 5.6 µM (active)

Question: Which EC50 [1] does the source give for NS(=O)(=O)c1ccc(NC2=CC(=O)C(=O)c3ccccc32)cc1 here?
Answer: 24.4 µM (active)

Question: And the EC50 (Protein RecA)?
Answer: 0.667 µM (active)

Question: What about the CC50 (Vero) of the same compound?
Answer: 11.8 µM (active)

Question: What does the source list for Clc1cc(-c2c[nH]c3ncccc23)nc(NC2CCCCC2)n1?
Answer: Ki [2]: 0.0501 µM (active); Ki (Aurora kinase A): > 1.58 µM (inactive); Ki [3]: > 10 µM (inactive); Ki [4]: > 3.16 µM (inactive); Ki [5]: > 3.16 µM (inactive); Ki [6]: > 3.98 µM (inactive); Ki [7]: 0.126 µM (active); Ki (Insulin receptor): 3.16 µM (active); Ki (Activin receptor type-1): > 3.98 µM (inactive); Ki [8]: 0.794 µM (active); Ki [9]: 0.251 µM (active); Ki [10]: > 7.94 µM (inactive); Ki [11]: > 5.01 µM (inactive); Ki [12]: > 10 µM (inactive); Ki [13]: > 3.16 µM (inactive); Ki [14]: > 1.26 µM (inactive); Ki [15]: 0.000501 µM (active); Ki [16]: > 2 µM (inactive); Ki [17]: > 1.26 µM (inactive); Ki [18]: > 3.98 µM (inactive); Ki [19]: > 7.94 µM (inactive); Ki [20]: > 1.58 µM (inactive)
